Laboratory results reported in ChEMBL document CHEMBL1201862, “PubChem BioAssay data set” (2004).
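All cell lines were grown in 96-well plates and treated with compound for 48 hours. GI50 is the concentration that inhibits growth by half.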 Calls of active or inactive are those of the source. No stated cut-off is given here; in the data, active = GI50 up to about 1.1 µM and inactive = higher. Where a SMILES comes first, the peptide text is derived from it. [ ]: non-standard residue; d: D form. The star is where a group is joined. Cbz = O=C(OCc1ccccc1)*; Aib = CC(C)(N)C(=O)O; OBn = c1ccc(CO*)cc1

Assays:
Assay in all cases: inhibition of tumour cell growth, NCI panel, 48 h
BT-549 = system: BT-549
LXFL 529 = system: LXFL 529
DLD-1 = system: DLD-1
M19-MEL = system: M19-MEL
DMS-114 = system: DMS-114
XF498 = system: XF498
HOP-18 = system: HOP-18
SNB-78 = system: SNB-78

CC1=C(C#N)S(=O)(=O)c2c(oc(C)c2C)N1
GI50 (BT-549): > 100 µM (inactive)

CC(=O)Nc1cccc(N2C(=O)/C(=C\c3cccc(Oc4ccccc4)c3)S(=O)(=O)C2c2ccccc2)c1 (stereo unspecified)
GI50 (BT-549): 69.8 µM (inactive)

Cc1ccc(C)c(NC(=O)c2cc(-c3ccc([N+](=O)[O-])cc3)nc(N)n2)c1
GI50 (LXFL 529): > 100 µM (inactive) | GI50 (DLD-1): > 100 µM (inactive) | GI50 (M19-MEL): > 100 µM (inactive) | GI50 (DMS-114): > 100 µM (inactive) | GI50 (XF498): > 100 µM (inactive) | GI50 (HOP-18): > 100 µM (inactive)

C[C@@H]1[C@@H](c2ccccc2)O[B-](c2ccccc2)(c2ccccc2)N1C
GI50 (BT-549): 30.7 µM (inactive)

CC(=O)NC1C(OCc2ccccc2)OC(CO)C(O)C1OCC(=O)N[C@@H](C)C(=O)N[C@H](CCC(=O)NCCCCNc1c2ccccc2nc2cccc([N+](=O)[O-])c12)C(N)=O (stereo partly specified)
GI50 (BT-549): 2.74 µM (inactive)

COc1ccc(CNC(C)C(=O)O)cc1 (stereo unspecified)
GI50 (BT-549): > 100 µM (inactive)

CCCCOC(=O)NC(c1ccccc1)C(O)C(=O)OC1C[C@@]2(O)C(OC(=O)c3ccccc3)C3[C@](C)(C(=O)[C@H](OC(C)=O)C(=C1C)C2(C)C)[C@@H](O)C[C@H]1OC[C@@]31OC(C)=O (stereo partly specified)
GI50 (BT-549): 0.0148 µM (active)

CCOC(=O)C(=Cc1ccc(C(=O)OC)cc1)C(=O)OCC
GI50 (LXFL 529): 1.75 µM (inactive) | GI50 (DLD-1): 2.12 µM (inactive) | GI50 (M19-MEL): 2.75 µM (inactive) | GI50 (DMS-114): 1.66 µM (inactive) | GI50 (HOP-18): 3.49 µM (inactive)

O=C(NO)c1ccc(OCc2cccc(Cl)c2)cc1
GI50 (BT-549): 13.7 µM (inactive)

Nc1nc(Cl)c2ncn(Cc3ccccc3CCl)c2n1
GI50 (BT-549): 8.18 µM (inactive)

CCc1c[n+]2c(cc1C1=CN3c4ccccc4[C@]45CCN6C/C(=C/CO)[C@H](C[C@H]64)[C@@H]([C@@H]1O)[C@H]35)-c1[nH]c3ccccc3c1CC2
GI50 (BT-549): > 50 µM (inactive)

N/N=C(\CC1OC(=O)c2ccccc21)c1ccco1 (stereo unspecified)
GI50 (LXFL 529): > 100 µM (inactive) | GI50 (DLD-1): > 100 µM (inactive) | GI50 (M19-MEL): > 100 µM (inactive) | GI50 (DMS-114): > 100 µM (inactive) | GI50 (HOP-18): < 0.01 µM (active)

O=C(O)C1CCCCC1C(=O)Nn1cnnc1 (stereo unspecified)
GI50 (BT-549): > 100 µM (inactive)

COc1c(C)c(OC)c(C(=O)CC(C)C)c(OC)c1C
GI50 (BT-549): > 100 µM (inactive)

COc1ccc2c(c1OC)C(=O)O[C@@H]2[C@H]1c2cc3c(cc2CCN1C)OCO3
GI50 (BT-549): > 100 µM (inactive)

Cc1cc(NC(=O)NC(=O)c2ccccc2NC(=O)CN)ccc1Oc1ncc(Br)cn1
GI50 (LXFL 529): 1.73 µM (inactive) | GI50 (DLD-1): 1.4 µM (inactive) | GI50 (DMS-114): 0.191 µM (active) | GI50 (XF498): 13.9 µM (inactive)

CN(C)CCCn1c(Cn2nc3ccccc3n2)nc2cc(C(F)(F)F)ccc21
GI50 (BT-549): 16.8 µM (inactive)

O=c1n(CC2CO2)c(=O)n(CC2CO2)c(=O)n1CC1CO1 (stereo unspecified) [TEROXIRONE]
GI50 (SNB-78): 110 µM (inactive) | GI50 (DLD-1): 62.1 µM (inactive) | GI50 (BT-549): 11.5 µM (inactive) | GI50 (M19-MEL): 53.7 µM (inactive) | GI50 (DMS-114): 11.4 µM (inactive) | GI50 (HOP-18): 91.8 µM (inactive)

C=C1CN(C2=NCCO2)C1
GI50 (BT-549): > 100 µM (inactive)

c1cncc(C(Nc2cccc3cccnc23)Nc2cccc3cccnc23)c1
GI50 (BT-549): > 100 µM (inactive)

N#C/C(=C\c1cc(Br)c(O)c(Br)c1)c1cccnc1
GI50 (BT-549): 22.5 µM (inactive)

CC(C)(CCC(C)(C)c1ccccc1)c1ccccc1
GI50 (BT-549): 20.2 µM (inactive)

CC[P+](C#Cc1ccccc1)(c1ccccc1)c1ccccc1
GI50 (BT-549): 1.31 µM (inactive)

CCC(O)(Cc1ccc(OC)cc1)c1ccc(OC)cc1 (stereo unspecified)
GI50 (BT-549): > 100 µM (inactive)

N=C(N)NS(=O)(=O)c1ccc(NC(=O)c2ccc3nc4ccccc4c(N)c3c2)cc1
GI50 (BT-549): > 100 µM (inactive)

Cn1c(=O)c2[nH]cnc2n(CC(N)=O)c1=O
GI50 (LXFL 529): > 100 µM (inactive) | GI50 (SNB-78): > 100 µM (inactive) | GI50 (DLD-1): > 100 µM (inactive) | GI50 (M19-MEL): > 100 µM (inactive) | GI50 (DMS-114): > 100 µM (inactive) | GI50 (XF498): > 100 µM (inactive)

CCOC(CBr)OC1C(=O)OCC1(C)C (stereo unspecified)
GI50 (BT-549): > 100 µM (inactive)

CN(C(=O)c1cc2c(s1)sc1c(=O)n(C)c3ccccc3c12)c1ccccc1
GI50 (BT-549): > 100 µM (inactive)

CCOC(=O)NC(Nc1c(F)c(F)c(F)c(F)c1F)(C(F)(F)F)C(F)(F)F
GI50 (BT-549): > 100 µM (inactive)

COc1ccc2c(C=O)c3n(c(=O)c2c1OC)CCc1cc2c(cc1-3)OCO2
GI50 (BT-549): 18.9 µM (inactive)

COC(=O)c1ccc(OCc2ccc3oc(=O)c(-c4ccccc4)nc3c2)cc1
GI50 (SNB-78): > 100 µM (inactive) | GI50 (DLD-1): 15.2 µM (inactive) | GI50 (M19-MEL): > 100 µM (inactive) | GI50 (DMS-114): > 100 µM (inactive) | GI50 (XF498): 84.3 µM (inactive) | GI50 (HOP-18): > 100 µM (inactive)

Cc1ccc2nc(-c3ccc(N)c(Br)c3)sc2c1
GI50 (BT-549): 14.9 µM (inactive)

COc1ccc(-c2cc(Cc3cccs3)c(=O)[nH]n2)cc1
GI50 (LXFL 529): 53.8 µM (inactive) | GI50 (SNB-78): > 100 µM (inactive) | GI50 (M19-MEL): 40.3 µM (inactive) | GI50 (DMS-114): 74.6 µM (inactive)

CC1=Nc2sc3c(c2C2=NCCN12)CCCC3
GI50 (BT-549): 19.1 µM (inactive)

Cc1ccc(S(=O)(=O)c2c(O)c3ccccc3n(C)c2=O)cc1
GI50 (BT-549): > 100 µM (inactive)

CC(=O)O[C@H]1C(=O)[C@@]2(C)[C@H]([C@H](OC(=O)c3ccc([N+](=O)[O-])cc3)[C@]3(O)C[C@H](OC(=O)[C@H](O)[C@@H](NC(=O)c4ccccc4)c4ccccc4)C(C)=C1C3(C)C)[C@]1(OC(C)=O)CO[C@@H]1C[C@@H]2O
GI50 (BT-549): > 25 µM (inactive)

CC1=C2CC(C)(C)/C=C\C(=O)/C(C)=C\C3=C[C@H](C)C[C@]3(O2)C1=O
GI50 (BT-549): 0.518 µM (active)

COP(C)(=O)C(Cc1c[nH]c2ccccc12)NC(=O)OCc1ccccc1 (stereo unspecified)
GI50 (BT-549): > 100 µM (inactive)

CCN(CC)C(=O)COc1cc2c(O)c3c(O)c(C)c4c(c13)C(=O)C(C)(OC=CC(OC)C(C)C(OC(C)=O)C(C)C(O)C(C)C(O)C(C)C=CC=C(C)C(=O)N2)O4 (stereo unspecified)
GI50 (BT-549): > 100 µM (inactive)

C=CCC1C(=O)Nc2cccc3ncn(c23)C1=O (stereo unspecified)
GI50 (BT-549): > 100 µM (inactive)

CCOC(=O)c1cc(=O)c2ccnc3c2n1CCS3
GI50 (BT-549): 62.2 µM (inactive)

CN1CCN(CCNc2ccc(CO)c3sc4ccccc4c(=O)c23)CC1
GI50 (LXFL 529): 9.71 µM (inactive) | GI50 (DLD-1): 11.7 µM (inactive) | GI50 (M19-MEL): 12.2 µM (inactive) | GI50 (DMS-114): 9.57 µM (inactive)

CC(NC(=O)C(C)(C)NC(=O)C(CC(=O)OCc1ccccc1)NC(=O)OCc1ccccc1)C(N)=O (stereo unspecified) (Cbz-Asp(OBn)-[Aib]-Ala-NH2; configuration not given here)
GI50 (BT-549): > 100 µM (inactive)

O=C(Cn1c(C(=O)/C=C/c2cccs2)nc2ccccc21)c1ccc(Cl)cc1
GI50 (BT-549): 21 µM (inactive)

CCN1C[C@]2(C)CC[C@H](OCc3ccccc3)C34C5C[C@@H]6CC[C@](O)(C(C[C@@H]32)C14)C5[C@H]6OCc1ccccc1 (stereo partly specified)
GI50 (BT-549): > 100 µM (inactive)

CCOc1cc2c(cc1O)C(N)C[C@@H]1[C@@H]2CC[C@]2(C)[C@@H](O)CC[C@@H]12 (stereo partly specified)
GI50 (BT-549): 40.9 µM (inactive)

CC(C)(C)OC(=O)NC(Cc1ccc(OCc2ccccc2)cn1)C(=O)O (stereo unspecified)
GI50 (BT-549): > 100 µM (inactive)

CNc1nc2n(CCO)c(-c3ccccc3)c(-c3ccccc3)nc-2c(=O)n1
GI50 (BT-549): > 50 µM (inactive)

CNC(=O)c1ccccc1-[s+]1c2ccccc2c(=O)n1C (stereo unspecified)
GI50 (BT-549): > 100 µM (inactive)

CCOC(=O)c1sc2nc(SC)nc3c2c1NCN3C1CC1
GI50 (BT-549): > 100 µM (inactive)

COC(=O)C#CC1(O)C=CC(=O)C=C1
GI50 (BT-549): 1.01 µM (active)

CCN(CC)CC(C(=O)Nc1c(C)cccc1C)/C(C)=N\NC(=O)C[N+](C)(C)C (stereo unspecified)
GI50 (LXFL 529): > 100 µM (inactive) | GI50 (SNB-78): > 100 µM (inactive) | GI50 (DLD-1): > 100 µM (inactive) | GI50 (M19-MEL): > 100 µM (inactive) | GI50 (DMS-114): > 100 µM (inactive) | GI50 (XF498): > 100 µM (inactive)

N#[N+]c1cc2c(cc1Br)-c1ccccc1C2
GI50 (BT-549): 70 µM (inactive)

O=C(O)CCc1ccc(-c2ccccc2)[nH]1
GI50 (BT-549): > 100 µM (inactive)
